# Test results reported in ChEMBL document CHEMBL1201862, “PubChem BioAssay data set” (2004).
#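 Cultured in 96-well plates, cells were exposed to test compound for 48 hours across five concentrations. GI50 = concentration required for 50% inhibition of growth.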 The source made the active and inactive calls. No stated cut-off is given here; in the data, active = GI50 up to about 1.1 µM and inactive = higher.
# Legend:
# Test in all cases: NCI anticancer screen, dose series, 48 h
# 786-0 = test system: 786-0
# A498 = test system: A498
# A549 = test system: A549
# ACHN = test system: ACHN
# CAKI-1 = test system: CAKI-1
# CCRF-CEM = test system: CCRF-CEM
# COLO 205 = test system: COLO 205
# DMS-114 = test system: DMS-114
# DMS-273 = test system: DMS-273
# EKVX = test system: EKVX
# HCC 2998 = test system: HCC 2998
# HCT-116 = test system: HCT-116
# HCT-15 = test system: HCT-15
# HL-60 = test system: HL-60
# HOP-18 = test system: HOP-18
# HOP-62 = test system: HOP-62
# HOP-92 = test system: HOP-92
# HT-29 = test system: HT-29
# IGROV-1 = test system: IGROV-1
# K562 = test system: K562
# KM-20L2 = test system: KM-20L2
# KM12 = test system: KM12
# LOX IMVI = test system: LOX IMVI
# LXFL 529 = test system: LXFL 529
# M14 = test system: M14
# M19-MEL = test system: M19-MEL
# MOLT-4 = test system: MOLT-4
# Malme-3M = test system: Malme-3M
# NCI-H226 = test system: NCI-H226
# NCI-H23 = test system: NCI-H23
# NCI-H460 = test system: NCI-H460
# OVCAR-3 = test system: OVCAR-3
# OVCAR-4 = test system: OVCAR-4
# OVCAR-5 = test system: OVCAR-5
# OVCAR-8 = test system: OVCAR-8
# RPMI-8226 = test system: RPMI-8226
# RXF 393 = test system: RXF 393
# SF-268 = test system: SF-268
# SF-295 = test system: SF-295
# SF-539 = test system: SF-539
# SK-MEL-28 = test system: SK-MEL-28
# SK-MEL-2 = test system: SK-MEL-2
# SK-MEL-5 = test system: SK-MEL-5
# SK-OV-3 = test system: SK-OV-3
# SN12C = test system: SN12C
# SNB-19 = test system: SNB-19
# SNB-75 = test system: SNB-75
# SNB-78 = test system: SNB-78
# SR = test system: SR
# SW-620 = test system: SW-620
# TK-10 = test system: TK-10
# U-251 = test system: U-251
# UACC-257 = test system: UACC-257
# UACC-62 = test system: UACC-62
# UO-31 = test system: UO-31
smiles,measurement,setting,value
CCc1cc(Cc2cc(Cl)c(NC(=O)C(=O)C3NC(=O)NC3=O)c(CC)c2)cc(Cl)c1NC(=O)C(=O)C1NC(=O)NC1=O (stereo not given),GI50,786-0,42.7 µM (inactive)
same,GI50,A498,> 100 µM (inactive)
same,GI50,A549,75 µM (inactive)
same,GI50,ACHN,94.4 µM (inactive)
same,GI50,CAKI-1,> 100 µM (inactive)
same,GI50,CCRF-CEM,34.5 µM (inactive)
same,GI50,COLO 205,57.8 µM (inactive)
same,GI50,DMS-114,26.9 µM (inactive)
same,GI50,DMS-273,20.4 µM (inactive)
same,GI50,EKVX,> 100 µM (inactive)
same,GI50,HCC 2998,42.8 µM (inactive)
same,GI50,HCT-116,31.3 µM (inactive)
same,GI50,HCT-15,17.3 µM
same,GI50,HL-60,35.2 µM (inactive)
same,GI50,HOP-18,> 100 µM (inactive)
same,GI50,HOP-62,> 100 µM (inactive)
same,GI50,HOP-92,> 100 µM (inactive)
same,GI50,HT-29,26.1 µM (inactive)
same,GI50,IGROV-1,> 100 µM (inactive)
same,GI50,K562,37.2 µM (inactive)
same,GI50,KM-20L2,33.9 µM (inactive)
same,GI50,KM12,> 100 µM (inactive)
same,GI50,LOX IMVI,31.8 µM (inactive)
same,GI50,LXFL 529,45.1 µM (inactive)
same,GI50,M14,48.5 µM (inactive)
same,GI50,M19-MEL,51.3 µM (inactive)
same,GI50,MOLT-4,66.5 µM (inactive)
same,GI50,Malme-3M,> 100 µM (inactive)
same,GI50,NCI-H226,> 100 µM (inactive)
same,GI50,NCI-H23,26.6 µM (inactive)
same,GI50,NCI-H460,36.1 µM (inactive)
same,GI50,OVCAR-3,36.8 µM (inactive)
same,GI50,OVCAR-4,> 100 µM (inactive)
same,GI50,OVCAR-5,> 100 µM (inactive)
same,GI50,OVCAR-8,21.4 µM (inactive)
same,GI50,RPMI-8226,26.4 µM (inactive)
same,GI50,RXF 393,22.9 µM (inactive)
same,GI50,SF-268,20.7 µM (inactive)
same,GI50,SF-295,51.4 µM (inactive)
same,GI50,SF-539,35.1 µM (inactive)
same,GI50,SK-MEL-28,37.5 µM (inactive)
same,GI50,SK-MEL-2,> 100 µM (inactive)
same,GI50,SK-MEL-5,> 100 µM (inactive)
same,GI50,SK-OV-3,33.9 µM (inactive)
same,GI50,SN12C,50.8 µM (inactive)
same,GI50,SNB-19,36.9 µM (inactive)
same,GI50,SNB-75,30.9 µM (inactive)
same,GI50,SNB-78,75.7 µM (inactive)
same,GI50,SR,37.2 µM (inactive)
same,GI50,SW-620,8.47 µM (inactive)
same,GI50,TK-10,> 100 µM (inactive)
same,GI50,U-251,17.1 µM (inactive)
same,GI50,UACC-257,30.6 µM (inactive)
same,GI50,UACC-62,46.7 µM (inactive)
same,GI50,UO-31,> 100 µM (inactive)
